In assay [1] the test system is T98G human glioblastoma cell line. The experiment in a line: Antiproliferative assay (MTS), GI50 in T98G cells. The format is cell-based. The text has this:
General methods are known for determining the effect of compounds on proliferation of cells. See, e.g., Zhu et al., J. Med. Chem., 2006, 49, 2063-2076. Cells can be selected by one of skill in the art and can be maintained as exponentially growing cultures in a suitable medium (e.g., RPMI 1640 medium) with adjuvents, including FBS, penicillin, and glutamine, provided at levels known to those skilled in this field. For human cancer cells, e.g., human glioblastoma cell line T98G, the cells can be trypsinized and washed prior to formation of a cell suspension in appropriate buffer and plating of the cell suspension. Typical microtiter plate amounts can be 500-2000 cells/well. The cells can be allowed to attach and grow for a defined time period (e.g., 36 hours, 72 hours, 96 hours, or other defined period) before treatment with either vehicle (e.g., dimethylsulfoxide) or test agent (e.g., compound of the invention) followed by an additional defined time period (e.g., 36 hrs, 72 hrs, 96 hrs, and the like). At the end of the additional defined time period, viability of the cells can be determined by any of a variety of methods known in the art, including assays employing MTS (3-(4,5-dimethylthiazol-2-yl)-5-(3-carboxymethoxyphenyl)-2-(4-sulfophenyl)-2H-tetrazolium), as described by -Cory et al., Cancer Commun., 1991, 3, 207-212. […] Replicates are typically assayed to allow determination of appropriate statistical properties as known in the art.
Compounds of the invention with structures of Formulae Xa, XVb, and XVa were assayed for inhibition of growth of the T98G human glioblastoma cell line (Table II).
Human glioblastoma T98G cells (American Type Culture Collection, Manassas, Va.) were maintained as exponentially growing cultures in an RPMI 1640 medium with 10% FBS, 1% penicillin and 1% glutamine. The cells were seeded into 96-well plates and allowed to attach and grow for 48 hours. One plate of cells was used for a time zero cell number determination (N=16), and cells in other plates were treated for 72 hours or 96 hours with either DMSO (1% v/v; N=8 for each plate) or a range of concentrations, in quadruplicate, of test agents. Cell number was determined spectrophotometrically at 490 nm minus absorbance at 630 nm after exposure to 3-(4,5-dimethylthiazol-2-yl)-5-(3-carboxymethoxyphenyl)-2-(4-sulfophenyl)-2H-tetrazolium (MTS) and N-methylphenazine methylsulfate. The fifty percent growth inhibitory concentrations (GI50) of test agents were calculated from the spectrophotometrically determined growth of the control cells over the 72- or 96-hour period.

The test system of another assay is bovine brain tubulin. The assay can be described thus: Inhibition of GTP-induced tubulin assembly (turbidimetry at 350 nm). The assay is classed as biochemical. The conditions noted are these: after 20 min at 30° C., 10 μM bovine brain tubulin, 0.8 M monosodium glutamate. The procedure: Bovine brain tubulin was isolated to electrophoretic homogeneity from fresh brains via methodology described by Hamel and Lin, Biochemistry 23: 4173-84 (1984). Tubulin (final concentration 10 μM; 1 mg/mL) was preincubated with test agents dissolved in DMSO (4% v/v final concentration) and monosodium glutamate (0.8 M final concentration, pH 6.6) for 15 minutes at 30° C. The reaction mixture was cooled to 0° C., and GTP (0.4 mM final concentration) was added. Reaction mixtures were transferred to cuvettes held at 2.5° C. in a Beckmann DU 7400 multichannel, temperature-controlled (Peltier unit) spectrophotometer, reading absorbance (turbidity) at 350 nm in each cuvette every 15 seconds. Baselines were established and temperature was quickly raised to 30° C. (in approximately 1 minute). After 20 minutes, the temperature was returned to 2.5° C. The turbidity value after 20 minutes at 30° C. for GTP alone was assigned as 100% assembly, and for DMSO alone as 0% assembly. The IC50 was calculated by linear regression of the percent assembly values at the same time point obtained with 0.625, 1.25, 2.5, 5, 10 and 20 μM test agent. In experiments to test for disassembly of preformed tubulin polymer, the test agent was added after 7 minutes of GTP-induced assembly.

In assay [2] the test system is bovine brain tubulin (vinca domain). The assay can be described thus: Inhibition of [3H]vinblastine binding to tubulin (centrifugal gel filtration). The conditions noted are these: 10 μM radiotracer, 10 μM tubulin; for % Inhibition of [3H]vinblastine binding by 5 μM test agent: 30 min room temperature; for IC50: test agent 0.5-100 μM, Hill fit. The procedure: (§1) The new compounds were tested for their abilities to bind at the vinca domain and at the related peptide/depsipeptide site on tubulin using a modification of a centrifugal gel filtration method described by Bai et al., Mol. Pharmacol. 7: 965-76 (1995). In the initial screens, each 0.32 mL reaction mixture contained 5 μM test agent and 10 μM [^3H]vinblastine (specific activity 8.50 Ci/mmol; GE Healthcare Bio-Sciences, Picataway, N.J.) or 10 μM [^3H]dolastatin 10 (specific activity 1.96 Ci/mmol; obtained from the Drug Synthesis and Chemistry Branch of the National Cancer Institute) predissolved in DMSO (final concentration 1% v/v) and 10 μM bovine brain tubulin, all in 0.1 M 2-(4-morpholino)ethanesulfonic acid (Mes), pH 6.9, containing 0.5 mM MgCl2. The mixture was incubated for 30 min at room temperature. Two 0.15 mL aliquots of the reaction mixture were applied to duplicate 2 mL beds of pre-swollen (in Mes, pH 6.9, containing 0.5 mM MgCl2) Sephadex G-50 (superfine) contained in Handee columns (Pierce Biotechnology, Rockford, Ill.). The columns were centrifuged at 800×g for 4 minutes and the protein concentration in the effluent was determined, using the bicinchoninic acid assay. The amount of radiolabeled ligand bound to tubulin was determined using scintillation spectrometry. Each value represents the mean ±SD of four determinations. […] Inhibition was calculated as the percent difference relative to that of the control incubation with DMSO (i.e., without test agent—assigned as 0% inhibition). […] GraphPad Prism was used to fit the resulting data to the Hill equation to determine the IC50 values.
For orientation: In gel filtration, larger molecules generally elute earlier.

The test system of assay [3] is HeLa human cervical carcinoma cells. The experiment in a line: High-content analysis of mitotic arrest in HeLa cells. The format is cell-based. The conditions noted are these: for Microtubule Density MDEC (minimum detectable effective concentration) / Mitotic Index MDEC (percentage of phosphohistone H3-positive cells) / Nuclear Condensation MDEC (minimum detectable effective concentration) / EC50: 20 hours treatment, average of four experiments ± SD; for EC50: Homo sapiens, read-out: Cell Density EC50; for activity in high-content analysis of mitotic arrest (in words): all endpoints measured. The procedure:
The effects of tubulysin analogs on mitotic arrest and cellular microtubules were studied. HeLa human cervical carcinoma cells (10,000 per well) were plated in collagen-1 coated 384-well microplates and were treated with vehicle (DMSO) or ten two-fold concentration gradients of test agents within 4-6 hours of seeding. Cells were incubated for 20 hours at 37° C., fixed with formaldehyde, and labeled with 10 μg/mL Hoechst 33342 in Hank's balanced salt solution (HBSS). Cells were permeabilized with 0.5% (w/w) Triton X-100 for 5 min at room temperature and incubated with a primary antibody cocktail consisting of an HBSS solution containing rabbit polyclonal anti-phosphohistone H3 (Ser10, 1:500, Upstate), and mouse monoclonal anti-α-tubulin (1:3000, Sigma), followed by a mixture of FITC-labeled donkey anti-mouse IgG (1:500) and Cy3-labeled donkey anti-rabbit IgG (1:500). Cells were rinsed once with HBSS and stored at 4° C. in HBSS until analysis.
Microplates were analyzed with an ArrayScanII instrument (Cellomics, Pittsburgh, Pa.) using the Target Activation Bioapplication (Cellomics, Inc.). Within the application, 1,000 individual cells in each well were imaged at three different wavelengths, using an Omega XF93 filter set at excitation/emission wavelengths of 350/461 nm (Hoechst), 494/519 nm (FITC), and 556/573 nm (Cy3). The following parameters were used for data analysis: average nuclear intensity, nuclei per field, average nuclear FITC intensity, and average nuclear Cy3 intensity. A nuclear mask was generated from Hoechst 33342-stained nuclei. Microtubule density and histone H3 phosphorylation were measured in the FITC and Cy3 channel, respectively. Microtubule density was defined as the average green (FITC) pixel intensity in an area defined by the nuclear mask. For determination of mitotic index and nuclear condensation, thresholds for Hoechst 33342 and phosphohistone-H3 intensities were defined as the average Hoechst 33342 or Cy3 intensity plus one standard deviation from twenty-eight vehicle-treated wells placed in the center of the microplate.
Cells were classified as positive if their average Hoechst 33342 or Cy3 intensity exceeded this threshold. To illustrate visually the effects of test agents on cellular microtubules and mitotic arrest, the identical 384-well plates then were used to acquire higher resolution images of selected wells.
Asynchronously growing HeLa cells were treated for 20 hours with each compound in collagen-coated 384 well microplates, fixed, and incubated with primary antibodies for tubulin and the mitotic marker protein phosphohistone H3, followed by FITC and Cy3-conjugated secondary antibodies, respectively. Cells were detected by nuclear counterstaining with Hoechst 33342, which also provided information about chromatin condensation and cell density as markers of cell death.

Assay [4] concerns bovine brain tubulin (peptide/depsipeptide site). The experiment in a line: Inhibition of [3H]dolastatin 10 binding to tubulin (centrifugal gel filtration). The conditions noted are these: 10 μM radiotracer, 10 μM tubulin; for % Inhibition of [3H]dolastatin 10 binding by 5 μM test agent: 30 min room temperature. The procedure:
as §1

The subject of assay [5] is bovine brain tubulin (vinca domain). The experiment in a line: Inhibition of [3H]vinblastine binding to tubulin (centrifugal gel filtration). The settings on record: 50 μM test agent.
Setting [6] is: Homo sapiens, T98G, 72 h (value in parentheses), ±SD, n = 4, Table IV, read-out: GI50 at (72 h) in T98 glioblastoma cells.
[7] abbreviates: Homo sapiens, T98G, 96 h, ±SD, n = 4, Table IV, read-out: GI50 at 96 h in T98 glioblastoma cells.

Like-named read-outs stand apart in the source and are kept apart here.

In the case of `CC[C@H](C)[C@@H]([C@@H](CC(=O)N1CCC[C@H]1[C@H](OC)[C@@H](C)C(=O)N[C@@H](Cc1ccccc1)c1nccs1)OC)N(C)C(=O)[C@@H](NC(=O)[C@H](C(C)C)N(C)C)C(C)C` [dolastatin 10, reference compound], the GI50 (usually the concentration giving 50% growth inhibition) in assay [1] (72 h (value in parentheses), ±SD, n = 4, Table IV, read-out: GI50 at (72 h) in T98 glioblastoma cells) is 0.1 nM; in assay [1] (96 h, ±SD, n = 4, Table IV, read-out: GI50 at 96 h in T98 glioblastoma cells), 0.056 ± 0.025 nM. The IC50 (commonly the midpoint of a concentration-inhibition curve) in the assay with bovine brain tubulin was determined as 1400 nM; in assay [2], 4600 ± 500 nM. In assay [2], the “% Inhibition of [3H]vinblastine binding by 5 μM test agent” value was 61 ± 1%.
In the case of `CC(=O)O[C@H]1C(=O)[C@@]2(C)[C@H]([C@H](OC(=O)c3ccccc3)[C@]3(O)C[C@H](OC(=O)[C@H](O)[C@@H](NC(=O)c4ccccc4)c4ccccc4)C(C)=C1C3(C)C)[C@]1(OC(C)=O)CO[C@@H]1C[C@@H]2O` [paclitaxel, reference compound], the GI50 in assay [1] (setting [6]) was found to be 24 nM. The GI50 in assay [1] (setting [7]) stood at 12 ± 7 nM. Further, the GI50 in assay [1] (Homo sapiens, T98G cells, 72 h exposure, Table II, read-out: GI50 in T98G cell, 72 h) came to 24 ± 9 nM. Besides, the GI50 in assay [1] (Homo sapiens, T98G cells, 96 h exposure, Table II, read-out: GI50 in T98G cell, 96 h) was found to be 12 ± 7 nM. Also, the GI50 in assay [1] (Homo sapiens, T98G cells, after 72 hrs exposure, read-out: GI50) was around 24 nM. Also, in assay [3], the “Microtubule Density MDEC (minimum detectable effective concentration)” value is reported as 7.0 ± 2.9 nM; the “Mitotic Index MDEC (percentage of phosphohistone H3-positive cells)” value is on record as 4.2 ± 3.6 nM; the “Nuclear Condensation MDEC (minimum detectable effective concentration)” value was determined as 10.2 ± 8.2 nM; the EC50 (as a rule, the concentration giving half of the maximal effect) is 11.3 ± 2.7 nM. In assay [3], the “activity in high-content analysis of mitotic arrest (in words)” value is listed as “nanomolar activity”.
On to `CC[C@]1(O)C[C@@H]2CN(CCc3c([nH]c4ccccc34)[C@@](C(=O)OC)(c3cc4c(cc3OC)N(C)[C@H]3[C@@](O)(C(=O)OC)[C@H](OC(C)=O)[C@]5(CC)C=CCN6CC[C@]43[C@@H]65)C2)C1` [vinblastine, reference compound], for which the values for the GI50 in assay [1] (setting [6]) and in assay [1] (setting [7]) were 8.6 nM and 1 ± 0.6 nM, respectively. Also, the IC50 with bovine brain tubulin is 1600 nM. Further, the “% Inhibition of [3H]dolastatin 10 binding by 5 μM test agent” value in assay [4] is recorded as 5 ± 6%.
On to `CC[C@]1(O)C[C@H]2CN(CCc3c([nH]c4ccccc34)[C@@](C(=O)OC)(c3cc4c(cc3OC)N(C=O)[C@H]3[C@@](O)(C(=O)OC)[C@H](OC(C)=O)[C@]5(CC)C=CCN6CC[C@]43[C@@H]65)C2)C1` [vincristine, reference compound], for which, in assay [3], the “Microtubule Density MDEC (minimum detectable effective concentration)” value is on record as 10.5 ± 10.1 nM, the “Mitotic Index MDEC (percentage of phosphohistone H3-positive cells)” value is on record as 4.1 ± 1.9 nM, the “Nuclear Condensation MDEC (minimum detectable effective concentration)” value is listed as 2.6 ± 2.0 nM and the EC50 stood at 19.7 ± 10.7 nM. Moreover, the “activity in high-content analysis of mitotic arrest (in words)” value in assay [3] is given as “nanomolar activity”. In assay [2], the “% Inhibition of [3H]vinblastine binding by 5 μM test agent” value is on record as 65 ± 2% and the IC50 worked out at 4400 ± 700 nM. Besides, the “% Inhibition of [3H]dolastatin 10 binding by 5 μM test agent” value in assay [4] is 21 ± 5%. In addition, in assay [4] (test agent 0.5-100 μM, Hill fit), the IC50 turned out to be 29000 ± 5000 nM. In assay [5], the “% Inhibition of [3H]vinblastine binding @50 μM” value is “(@50 μM: 98 ± 1%)”.

The values are drawn from patent US20100047841A1, “SYNTHESIS OF DESACETOXYTUBULYSIN H AND ANALOGS THEREOF” (University of Pittsburgh-of the Commonwealth System of …, priority 2007, published 2010).
